From paper PMC8800111 (The Journal of Biological Chemistry, 2021)
Converted amounts (≈) assume the structure as drawn.

What was measured:
[1] = system: STAT3 transcriptional activity in U3A cells; test: STAT3-dependent luciferase reporter assay; format: cell-based, human
Experimental: STAT3-dependent luciferase activity was then used as a measure of STAT3 transcriptional activity.
(§1) Cells were stimulated with 10 ng/ml interleukin 6 (Peprotech) or 10 ng/ml OSM (Peprotech). Cells were stimulated for 15 min for whole cell lysate immunoblotting, 60 to 90 min for qRT–PCR, and 5 to 6 h for luciferase reporter assays.
U3A cells (3 × 10^3) were plated in white opaque 96-well plates and allowed to adhere overnight. For siRNA-mediated knockdown, cells were left in the incubator for 48 h. For drug-mediated inhibition, cells were pretreated with compound for 1 h. Cells were then stimulated with cytokine for 5 to 6 h to activate STAT3. Luciferase activity was detected using the Bright-Glo Luciferase Assay System (Promega) and quantitated using a Luminoskan Ascent Microplate Reader (Labsystems).

[2] = system: STAT3 target genes in SKBR3 cells; test: STAT3 target gene expression by qRT-PCR in SKBR3 cells; format: cell-based, human; details: 300 μg/ml folinic acid
Experimental: as §1
Total RNA was extracted from cells using the RNeasy Mini Kit (Qiagen). Complementary DNA was generated using the TaqMan Reverse Transcription Reagents (Invitrogen). qPCR was performed in triplicate or quadruplicate using the Power SYBR Green PCR Master Mix (Invitrogen) on a 7500 Real-Time PCR System (Applied Biosystems) or a QuantStudio 6 Flex Real-Time PCR System (Applied Biosystems). Specificity of amplification was confirmed by melting curve analysis. Cycle threshold (CT) values for target genes were normalized to the endogenous reference gene GAPDH. Primer sequences (Table S3) were designed from the University of California Santa Cruz genome browser reference mRNA sequences using Primer3 ([43]).

MDA-MB-468 cells = test: Viability assay (CellTiter-Glo, number of viable cells); format: cell-based, human; details: 300 μg/ml folinic acid, 48 h
Experimental: We specifically hypothesized that folinic acid would prevent pyrimethamine-mediated loss of viability and loss of STAT3 transcriptional activity by bypassing DHFR and restoring the folate-dependent processes required for STAT3 transcriptional activity. […] Since MDA-MB-468 cells are dependent on STAT3 activity for survival, loss of viability can reflect STAT3 inhibition.
Cells (3–5 × 10^3) were plated in white opaque 96-well plates. The next day, cells were treated as indicated. ATP levels were detected at the indicated time points as a proxy for number of viable cells using the CellTiter-Glo Luminescent Cell Viability Assay (Promega). Luminescence was measured using a Luminoskan Ascent Microplate Reader (Labsystems).

[3] = system: STAT3 target genes in U3A cells; test: STAT3 target gene expression by qRT-PCR in U3A cells; format: cell-based, human
[4] = system: pSTAT3 in MDA-MB-468 cells; test: STAT3 tyrosine phosphorylation by immunoblotting; format: cell-based, human; details: 24 h, immunoblot
[5] = system: polar metabolites of MDA-MB-468 cells; test: LC/MS-based metabolite profiling; format: cell-based, human; details: MDA-MB-468, 24 h, 10 μM pyrimethamine or 0.05 μM methotrexate
[6] = Solubility limit of folic acid in cell experiments; format: physicochemical; details: culture media; read-out: maximum concentration testable because of solubility limitations
[7] = system: STAT3 target genes in MDA-MB-468 cells; test: STAT3 target gene expression by qRT-PCR in MDA-MB-468 cells; format: cell-based, human; details: MDA-MB-468, 10 μM, 24 h

Compound: Nc1nc(=O)c2c([nH]1)NCC(CNc1ccc(C(=O)N[C@@H](CCC(=O)O)C(=O)O)cc1)N2C=O (mixture of isomers) [folinic acid]
- rescue of the effect of methotrexate on STAT3-dependent luciferase ([1]; 1 μM methotrexate): able to rescue
- effect on TG101-mediated loss of STAT3-dependent luciferase ([1]; 10 μM TG101): no effect
- effect on the ability of pyrimethamine to inhibit OSM-stimulated STAT3 transcriptional activity ([1]; 10 μM pyrimethamine, tested concentrations of folate): significantly reduced
- effect on pyrimethamine-mediated loss of OSM-stimulated BCL6 expression [2]: partially prevented
- effect on TG101-dependent loss of viable cells (MDA-MB-468 cells): very little effect
- effect on pyrimethamine-dependent and methotrexate-dependent decreases in the number of viable cells (MDA-MB-468 cells): almost completely prevented
- effect on pyrimethamine-mediated loss of OSM-stimulated BCL6 expression ([3]; 300 μg/ml folinic acid): completely prevented

Compound: Cc1cn([C@H]2C[C@H](O)[C@@H](CO)O2)c(=O)[nH]c1=O [thymidine]
- effect on pyrimethamine inhibition of STAT3 transcriptional activity (viable cells, luciferase, target genes) ([1]; thymidine added with 10 μM pyrimethamine): reduced the ability
- rescue of methotrexate-mediated loss of STAT3 activity ([1]; thymidine added with methotrexate): unable to rescue

Compound: CN(Cc1cnc2nc(N)nc(N)c2n1)c1ccc(C(=O)N[C@@H](CCC(=O)O)C(=O)O)cc1 [methotrexate]
- OSM-stimulated STAT3 activity (luciferase) ([1]; 0.5 and 1 μM, 1 h pretreatment, OSM 5 h): decreased
- total / constitutive STAT3 tyrosine phosphorylation (pSTAT3) [4]: decrease
- OSM-stimulated expression of BCL6 and STAT3 ([3]; 1 μM 1 h, 10 ng/ml OSM 90 min): significantly reduced
- deoxyuridine monophosphate level compared with DMSO or ruxolitinib [5]: significantly accumulated
- purine synthesis intermediates 5-aminoimidazole-4-carboxamide ribonucleotide and glycineamide ribonucleotide [5]: significant increase

Compound: Nc1nc2ncc(CNc3ccc(C(=O)N[C@@H](CCC(=O)O)C(=O)O)cc3)nc2c(=O)[nH]1 [folic acid]
- solubility [6]: 10 µg/mL (≈ 22.7 µM)

Compound: Cc1cnc(Nc2ccc(OCCN3CCCC3)cc2)nc1Nc1cccc(S(=O)(=O)NC(C)(C)C)c1 [TG101, TG101348]
- SOCS3 expression in the presence of folinic acid ([7]; 300 μg/ml folinic acid): still reduced
- SOCS3 expression in the absence of folinic acid [7]: significantly reduced
